Results from PubChem BioAssay (NCI).
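Five compound concentrations were applied to cells in 96-well plates for 48 hours; endpoints were derived by simple linear interpolation of the resulting dose-response curve. Abbreviation: GI50, concentration required for 50% inhibition of growth. TGI denotes the concentration required for complete inhibition of growth.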

Tests used:
Test in all cases: growth of human tumour cells (NCI), 48 h
SF-539 CNS = test system: SF-539 CNS
MCF7 breast = test system: MCF7 breast
RXF 393 renal = test system: RXF 393 renal
SK-MEL-5 melanoma = test system: SK-MEL-5 melanoma
SNB-19 CNS = test system: SNB-19 CNS
HCT-116 colon = test system: HCT-116 colon
EKVX NSCLC = test system: EKVX NSCLC
ACHN renal = test system: ACHN renal
UACC-257 melanoma = test system: UACC-257 melanoma
OVCAR-3 ovarian = test system: OVCAR-3 ovarian
HOP-92 NSCLC = test system: HOP-92 NSCLC
SN12C renal = test system: SN12C renal
MALME-3M melanoma = test system: MALME-3M melanoma
NCI-H460 lung = test system: NCI-H460 lung
A549 NSCLC = test system: A549 NSCLC
HOP-62 NSCLC = test system: HOP-62 NSCLC
OVCAR-4 ovarian = test system: OVCAR-4 ovarian
786-0 renal = test system: 786-0 renal
SR leukemia = test system: SR leukemia
MDA-MB-231 breast = test system: MDA-MB-231 breast
MDA-MB-468 breast = test system: MDA-MB-468 breast
HL-60(TB) leukemia = test system: HL-60(TB) leukemia
COLO 205 colon = test system: COLO 205 colon
CAKI-1 renal = test system: CAKI-1 renal
SK-OV-3 ovarian = test system: SK-OV-3 ovarian
KM12 colon = test system: KM12 colon
NCI-H522 lung = test system: NCI-H522 lung
IGROV1 ovarian = test system: IGROV1 ovarian
UO-31 renal = test system: UO-31 renal

N#Cc1c(-c2ccc(Cl)cc2)nc2n[nH]c(-c3ccc(Cl)cc3)c2c1-c1ccc(C(F)(F)F)cc1
TGI (SF-539 CNS): 3.76 µM | GI50 (MCF7 breast): 2.43 µM | TGI (MCF7 breast): 10.8 µM | GI50 (RXF 393 renal): 2.64 µM | TGI (RXF 393 renal): 9.54 µM | GI50 (SK-MEL-5 melanoma): 1.92 µM | TGI (SK-MEL-5 melanoma): 3.79 µM | GI50 (SNB-19 CNS): 3.38 µM | TGI (SNB-19 CNS): 14.7 µM | GI50 (HCT-116 colon): 1.61 µM | TGI (HCT-116 colon): 3.74 µM | GI50 (EKVX NSCLC): 2.71 µM | TGI (EKVX NSCLC): 11.4 µM | GI50 (ACHN renal): 2.85 µM | TGI (ACHN renal): 9.97 µM | GI50 (UACC-257 melanoma): 2.72 µM | TGI (UACC-257 melanoma): 8 µM | GI50 (OVCAR-3 ovarian): 2.19 µM | TGI (OVCAR-3 ovarian): 5.07 µM | GI50 (HOP-92 NSCLC): 1.57 µM | TGI (HOP-92 NSCLC): 4.37 µM | GI50 (SN12C renal): 2.59 µM | TGI (SN12C renal): 8.35 µM | GI50 (MALME-3M melanoma): 1.98 µM | TGI (MALME-3M melanoma): 4.86 µM | GI50 (NCI-H460 lung): 2.08 µM | TGI (NCI-H460 lung): 4.57 µM | GI50 (A549 NSCLC): 3.45 µM | TGI (A549 NSCLC): 12 µM | GI50 (HOP-62 NSCLC): 3.06 µM | TGI (HOP-62 NSCLC): 9.84 µM | GI50 (OVCAR-4 ovarian): 2.5 µM | TGI (OVCAR-4 ovarian): 8.38 µM | GI50 (786-0 renal): 2.57 µM | TGI (786-0 renal): 7.55 µM | GI50 (SR leukemia): 1.69 µM | TGI (SR leukemia): 4.42 µM | GI50 (MDA-MB-231 breast): 2.12 µM | TGI (MDA-MB-231 breast): 4.64 µM | GI50 (MDA-MB-468 breast): 2.59 µM | TGI (MDA-MB-468 breast): 9.55 µM | GI50 (HL-60(TB) leukemia): 1.79 µM | TGI (HL-60(TB) leukemia): 4.79 µM | GI50 (COLO 205 colon): 1.71 µM | TGI (COLO 205 colon): 3.24 µM | GI50 (CAKI-1 renal): 2 µM | TGI (CAKI-1 renal): 7.2 µM | GI50 (SK-OV-3 ovarian): 3.03 µM | TGI (SK-OV-3 ovarian): 10.2 µM | GI50 (KM12 colon): 2.49 µM | TGI (KM12 colon): 8.32 µM | GI50 (NCI-H522 lung): 2.03 µM | TGI (NCI-H522 lung): 5.68 µM | GI50 (IGROV1 ovarian): 1.92 µM | TGI (IGROV1 ovarian): 6.49 µM | GI50 (UO-31 renal): 2.1 µM | TGI (UO-31 renal): 8.61 µM
